The target of the assay is alanyl aminopeptidases (APN) (Homo sapiens, UniProt P15144). Nature of the assay: Inhibition of alanyl aminopeptidase enzymatic activity, fluorogenic substrate (Ala)2-rhodamine 110. In kind it is biochemical. The following applies: Table 9, unstarred values; read-out: IC50APN. The protocol:
The inhibition characteristics measured are referred to as IC-50 values or ID50 values (the latter marked with “*”) for said enzyme. The enzymatic activity was determined by means of the fluorogenic substrate/product (Ala)2-rhodamine 110.

Molecules are shown by their SMILES.

Sequence of alanyl aminopeptidases (APN) (P15144 whole entry, species assumed): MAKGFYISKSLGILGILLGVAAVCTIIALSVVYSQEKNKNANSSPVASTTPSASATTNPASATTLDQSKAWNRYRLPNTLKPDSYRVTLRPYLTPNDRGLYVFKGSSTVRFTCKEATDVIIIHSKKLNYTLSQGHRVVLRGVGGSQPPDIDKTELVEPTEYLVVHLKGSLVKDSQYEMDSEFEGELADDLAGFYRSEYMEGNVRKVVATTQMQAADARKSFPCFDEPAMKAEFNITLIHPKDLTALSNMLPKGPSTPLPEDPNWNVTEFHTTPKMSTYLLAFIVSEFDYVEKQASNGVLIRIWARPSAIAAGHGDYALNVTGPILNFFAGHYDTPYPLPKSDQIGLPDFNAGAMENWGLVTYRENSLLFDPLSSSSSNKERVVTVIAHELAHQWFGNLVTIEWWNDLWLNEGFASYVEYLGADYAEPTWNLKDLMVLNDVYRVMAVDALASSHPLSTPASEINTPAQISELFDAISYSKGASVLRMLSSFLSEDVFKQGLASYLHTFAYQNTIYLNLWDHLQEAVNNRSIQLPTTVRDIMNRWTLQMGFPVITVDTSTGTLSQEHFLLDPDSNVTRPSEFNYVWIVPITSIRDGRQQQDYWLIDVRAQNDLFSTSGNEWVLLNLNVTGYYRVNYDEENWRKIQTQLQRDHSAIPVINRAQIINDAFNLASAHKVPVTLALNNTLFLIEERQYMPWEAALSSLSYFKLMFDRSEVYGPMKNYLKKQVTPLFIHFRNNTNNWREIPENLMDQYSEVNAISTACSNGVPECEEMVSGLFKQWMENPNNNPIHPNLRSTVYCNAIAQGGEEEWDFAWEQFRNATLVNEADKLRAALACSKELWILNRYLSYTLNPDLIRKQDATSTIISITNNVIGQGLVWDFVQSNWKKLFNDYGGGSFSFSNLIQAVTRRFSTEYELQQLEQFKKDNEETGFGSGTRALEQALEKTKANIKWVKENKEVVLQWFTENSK

Take `COC(=O)c1cc(-c2ccc(/C=C3\C(=O)N(CCCO)C(=O)C(C#N)=C3C)o2)ccc1Cl` [A9.036]: the IC50 was 15.2 µM.

For `CC1=C(C#N)C(=O)N(CCCO)C(=O)/C1=C\c1ccc(-c2ccc(Br)cc2)o1` [A9.037], the IC50 was 16 µM.

As to `O=C(O)C1N=NC(c2ccc(F)cc2)=CN1O` (centres unmarked) [A9.038], the IC50 came to 17.1 µM.

Turning to `C=CCOC(=O)c1cc(-c2ccc(/C=C3/C(=O)N(CCCO)C(=O)C(C#N)=C3C)o2)ccc1Cl` [A9.040], the IC50 worked out at 18.1 µM.

Take `Cc1cc(=O)[nH]c(N/N=C/c2ccco2)n1` [A9.041]: the IC50 was found to be 18.2 µM.

Consider `CC(=O)c1cccc(-c2ccc(/C=C3/C(=O)N(CCCO)C(=O)C(C#N)=C3C)o2)c1` [A9.042], for which the IC50 amounted to 18.2 µM.

As to `O=C(N/C(=C\c1ccco1)C(=O)N1CCCC(CO)C1)c1ccccc1` (centres unmarked) [A9.043], the IC50 amounted to 19 µM.

In the case of `O=C(Cc1ccc([N+](=O)[O-])cc1)N1CCOCC1` [A9.044], the IC50 was 19.1 µM.

On to `CO/N=C(\c1nonc1N)N1CCN(c2ccc([N+](=O)[O-])cc2Cl)CC1` [A9.045], for which the IC50 stood at 19.2 µM.

As to `CN1C/C(=C/c2ccco2)C(=O)/C(=C/c2ccco2)C1` [A9.046], the IC50 is 19.2 µM.

On to `CC1CCCCN1S(=O)(=O)c1ccc(NC(=O)/C=C/c2ccco2)cc1` (centres unmarked) [A9.047], for which the IC50 stood at 19.9 µM.

As for `Cc1cc(C)n(-c2nnc(N)nn2)n1` [A9.048], the IC50 is 20.3 µM.

Turning to `CCCN1C(=O)C(C#N)=C(C)/C(=C\c2ccc(-c3cccc(Cl)c3C)o2)C1=O` [A9.049], the IC50 was determined as 20.8 µM.

Consider `COc1ccc(C[C@@H](N)C(=O)N[C@H]2[C@H](O)[C@H](n3cnc4c(N(C)C)ncnc43)O[C@@H]2CO)cc1` [A9.050], for which the IC50 turned out to be 20.9 µM.

Turning to `O=C(N/C(=C\c1ccco1)C(=O)N1CCC(O)CC1)c1ccccc1` [A9.051], the IC50 amounted to 21.1 µM.

Consider `O=C(O)c1ccc(-n2c(/C=C/c3ccco3)nc3ccccc3c2=O)cc1` [A9.052], for which the IC50 came to 21.2 µM.

Regarding `CC1=C(C#N)C(O)=NC(=O)/C1=C/c1ccc(-c2ccc(Cl)c(C(=O)OC(C)C)c2)o1` [A9.053], the IC50 stood at 21.3 µM.

Regarding `CN(C)c1c(Cl)cc(/C(=N/O)N2CCOCC2)cc1Cl` [A9.054], the IC50 was determined as 21.4 µM.

Take `Cc1cccc(C)c1Nc1c(-c2ccccc2NC(=O)Nc2cccc(Cl)c2)nc2c(C(=O)NCC(C)C)cccn12` [A9.055]: the IC50 is 21.6 µM.

With `O=C(/C=C/c1ccco1)Nc1ccc(OCC(=O)N2CCOCC2)cc1` [A9.056], the IC50 was determined as 21.9 µM.

For `CCOC(=O)c1c(C)oc2c1c1c(c3ccccc32)OCN(C2CCS(=O)(=O)C2)C1` (centres unmarked) [A9.057], the IC50 amounted to 22.3 µM.

`O=C(N/N=C/c1ccco1)c1ccc(=O)[nH]n1` [A9.058]: the IC50 worked out at 22.4 µM.

In the case of `Cn1nc(-c2cccs2)nc2c(=O)n(C)c(=O)nc1-2` [A9.059], the IC50 was 25 µM.

Take `CN(C)CCCN1CCN(c2nc(N(C)CC(=O)O)c3ncn(Cc4ccc(C(F)(F)F)cc4)c3n2)CC1` [A9.060]: the IC50 came to 23 µM.

Take `CCOC(=O)C1=C2SCC(=O)N2C(N)=C(C#N)C1` [A9.061]: the IC50 was 23.1 µM.

On to `O=C1c2cccc3c(Br)c([N+](=O)[O-])cc(c23)C(=O)N1c1cccc([N+](=O)[O-])c1` [A9.062], for which the IC50 worked out at 23.3 µM.

As to `O=C(Nc1ccc(O)cc1C(=O)O)c1cccc(N2C(=O)c3cccc4c([N+](=O)[O-])ccc(c34)C2=O)c1` [A9.063], the IC50 was determined as 23.6 µM.

Consider `CCCOC(=O)c1cc(-c2ccc(/C=C3\C(=O)N(CCCO)C(=O)C(C#N)=C3C)o2)ccc1Cl` [A9.064], for which the IC50 turned out to be 23.8 µM.

As for `Cn1c(=O)[nH]c2nnc(-c3cccs3)nc2c1=O` [A9.065], the IC50 worked out at 22.6 µM.

Turning to `O=C(N/C(=C\c1ccco1)C(=O)N1CCOCC1)c1ccccc1Cl` [A9.066], the IC50 was determined as 25.5 µM.

Consider `Cc1ccc(/C=N/NC(=O)c2nnn(-c3nonc3N)c2CN2CCOCC2)o1` [A9.067], for which the IC50 amounted to 26.7 µM.

On to `O=C(NC(Sc1ccncn1)C(=O)c1ccccc1)c1ccccc1` (centres unmarked) [A9.068], for which the IC50 came out at 26.9 µM.

`Cc1ccc(Cn2c(SCCC(=O)O)nc3c2c(=O)n(C)c(=O)n3C)cc1` [A9.070]: the IC50 stood at 28 µM.

For `COC(=O)c1ccccc1-c1ccc(/C=C2\C(=O)N(C)C(=O)C(C#N)=C2C)o1` [A9.071], the IC50 was 28.1 µM.

As to `CC1=C(C#N)C(=O)N(CC(C)O)C(=O)/C1=C/c1ccc(-c2cccc(Cl)c2C)o1` (centres unmarked) [A9.072], the IC50 stood at 28.6 µM.

For the molecule `Cc1ccc(C(=O)N/C(=C\c2ccco2)C(=O)N2CCOCC2)cc1C` [A9.073], the IC50 was found to be 28.8 µM.

`CCCCCCCSc1nnc2c(n1)OC(C(=O)c1ccccc1)=Nc1ccccc1-2` [A9.074]: the IC50 came out at 28.9 µM.

For the molecule `O=C(C1c2ccccc2Oc2ccccc21)n1cc(Cl)cn1` [A9.075], the IC50 stood at 29.1 µM.

Consider `C=CCN1C(=O)C(C#N)=C(C)/C(=C\c2ccc(-c3cc(C)c(C)cc3[N+](=O)[O-])o2)C1=O` [A9.076], for which the IC50 was 29.3 µM.

`O=c1[nH]cc([N+](=O)[O-])cc1C(F)(F)F` [A9.077]: the IC50 stood at 29.9 µM.

As for `CCOC(=O)C(C#N)c1c([N+](=O)[O-])c(=O)n(-c2ccccc2)c2ccccc12` (centres unmarked) [A9.078], the IC50 is 30 µM.

Turning to `O=C(N/N=C\c1ccco1)c1cnccn1` [A9.079], the IC50 was found to be 30.1 µM.

Turning to `CC1=C(C#N)C(=O)N=C(O)/C1=C\c1ccc(-c2ccc(Cl)cc2Cl)o1` [A9.080], the IC50 worked out at 30.3 µM.

Consider `NC(=O)C1CCN(C(=O)/C(=C/c2ccco2)NC(=O)c2ccccc2)CC1` [A9.081], for which the IC50 stood at 30.5 µM.

`CCc1c(C)nc2c(OC)cccc2c1SCC(=O)O` [A9.082]: the IC50 was determined as 31.1 µM.

For `CCCOC(=O)c1cc(-c2ccc(/C=C3/C(=O)N(CC(C)O)C(=O)C(C#N)=C3C)o2)ccc1Cl` (centres unmarked) [A9.083], the IC50 stood at 32 µM.

In the case of `Nc1nc2nc(-c3ccco3)cc(C(F)(F)F)n2n1` [A9.084], the IC50 came to 32.1 µM.

Consider `CC1=C(C#N)C(O)=NC(=O)/C1=C/c1ccc(-c2ccc(Cl)cc2Cl)o1` [A9.085], for which the IC50 came out at 32.4 µM.

With `CCOc1cccc(/C=N/NC(=O)C2=C(C)Nc3ccccc3S2)c1O` [A9.086], the IC50 was 33.2 µM.

Consider `Cc1ccccc1NC(=O)C1C(c2cccs2)C(C#N)=C(SCC(=O)Nc2ccc(Br)cc2)NC1(C)O` (centres unmarked) [A9.087], for which the IC50 is 33.9 µM.

Consider `CCOC(=O)C1=C(N)NC2=C(CCCC2)C12C(=O)Nc1ccccc12` (centres unmarked) [A9.088], for which the IC50 worked out at 33.6 µM.

Consider `CCOC(=O)C1CCN(C(=O)/C(=C/c2ccco2)NC(=O)c2ccc(C)c(C)c2)CC1` [A9.089], for which the IC50 worked out at 34.5 µM.

With `O=[N+]([O-])c1ncn(CN2CCOCC2)n1` [A9.090], the IC50 came to 36.8 µM.

For `CCCOC(=O)c1cc(-c2ccc(/C=C3\C(=O)NC(=O)C(C#N)=C3C)o2)ccc1Cl` [A9.091], the IC50 was found to be 36.8 µM.

Take `CC1CCN(S(=O)(=O)c2ccc3c(c2)C(Cl)(Cl)C(=O)N3)CC1` [A9.092]: the IC50 turned out to be 37.2 µM.

Turning to `CCOC(=O)c1cc(-c2ccc(/C=C3\C(=O)N(CCCO)C(=O)C(C#N)=C3C)o2)ccc1Cl` [A9.094], the IC50 was determined as 41 µM.

Consider `COc1cc(C)[n+](OC(=O)N(C)C)c(C)c1` [A9.095], for which the IC50 is 42.4 µM.

Consider `CC1CCN(C(=O)/C(=C\c2ccco2)NC(=O)c2ccccc2)CC1` [A9.096], for which the IC50 is 45 µM.

Take `CSCCC(Nc1ncnc2c1oc1ccccc12)C(=O)O` (centres unmarked) [A9.097]: the IC50 came out at 48.4 µM.

The record behind these values is patent US20070037752A1, “Novel alanyl-amino peptidase inhibitors for functionally influencing different cells and treating immunological, inflammatory, neuronal, and other diseases” (priority 2003, published 2007).
